Test results as given in PMC8222254, “Self-assembly of an anion receptor with metal-dependent kinase inhibition and potent in vitro anti-cancer properties” (Nature Communications, 2021).
“And” between values parts separate entries of the source, which are not always exact repeats. Identical values can stand only once. Like-named read-outs stand apart in the source and are kept apart here.

Key:
Experiment in all cases: Chemosensitivity, 96 h continuous exposure, MTT assay
Format in all cases: cell-based, human
[1] = tested on: H460
Text: (§1) All cell lines were purchased from and maintained as monolayers as described by the American Type Culture Collection with the exception of the p53^+/+ and p53^−/− isogenic clones of HCT116 human colorectal adenocarcinoma cells which were a kind gift from Professor Bert Vogelstein[54]. GBM1 cells were established from a primary GBM tumour by Heiko Wurdak and colleagues[32],[33]. Non-cancerous adult brain neural progenitor (NP1) cells were derived from a patient undergoing surgery to treat epilepsy[32],[33]. Cell culture and growth media for NP1 and GBM1 cells were as described[32],[33]. The response of cells following a continuous 96-h exposure to test compounds and platinates was determined using the MTT assay. Potency was recorded as the IC50 and the selectivity index (SI) was defined as the ratio of IC50 values for non-cancer to cancer cell lines with values >1 representing selectivity for cancer cells as opposed to non-cancer cells.
(§2) All cell lines used were maintained at low passage in antibiotic-free media. HT29, DLD-1, HCT116 p53^+/+ and HCT116 p53^−/− are all colorectal adenocarcinoma cell lines derived from different individuals and harbour different combinations of oncogenic lesions (except for the HCT116 isogenic cancer cell clones that are genetically identical except for p53 status). PSN-1, BxPC-3 and MiaPaCa2 are pancreatic carcinoma cell lines and A549 and H460 are lung carcinoma cell lines. HT29, DLD-1, PSN-1, BxPC-3, A549 and H460 cell lines were cultured in RPMI-1640 growth media (Sigma) containing 2 mM L-glutamine, 1 mM sodium pyruvate and 10% foetal bovine serum (FBS). HCT116 (p53^+/+ and p53^−/−) and MiaPaCa2 cell lines were cultured in Dulbecco’s Modified Eagle’s Medium (Sigma), 2 mM L-glutamine and 10% FBS. The ARPE-19 retinal epithelial non-cancer cell line was cultured in DMEM/F12 media (Gibco), 2 mM L-glutamine, 1 mM sodium pyruvate and 10% FBS. The MCF10A non-cancerous human breast epithelial cell line was cultured in Minimal Essential Media Eagle (Sigma), 2 mM L-glutamine, 1 mM sodium pyruvate, 10% FBS and 1x non-essential amino acids (NEAA). NP1 and GBM1 cells were cultured on plasticware coated with poly-L-ornithine (5 µg/ml) and laminin (2.4 µg/ml)[32],[33]. NP1 cells were grown in DMEM/F12 media (Gibco) supplemented with 5% FBS, 20 ng/ml hFGF, 20 ng/ml rhEGF, 0.5x B-27 supplement (Gibco), 0.5x N-2 supplement (Gibco) and 1x GLUTAMAX (Gibco). GBM1 cells were cultured in Neurobasal media (Gibco) supplemented with 40 ng/ml hFGF, 40 ng/ml rhEGF, 0.5x B-27 supplement (Gibco) and 0.5x N-2 supplement (Gibco).
(§3) [L2(Metal)3]^6+ and all the other self-assembling complexes were freshly formed by adding DMSO to individual components and mixing together by pipetting. These were then further diluted in cell culture media such that the final DMSO concentration that cells were exposed to was 0.2% (vehicle control). Cisplatin, oxaliplatin and carboplatin were dissolved in phosphate buffered saline. Cell lines were seeded into 96 well plates at 2 × 10^3 cells per well and incubated overnight at 37 °C. GBM1 cancer stem-like cells were seeded at 3 × 10^3 cells per well and NP1 neural progenitors were seeded at 1.5 × 10^3 cells per well. The following day, media was removed and replaced with fresh media containing test compounds at a range of concentrations. Cells were incubated with test compounds for a further 96 h after which the media was removed and replaced with fresh media (200 μl/well). MTT was added (20 μl at 5 mg/ml) and cells were incubated for a further 4 h. Media and MTT were removed and formazan crystals were dissolved in 150 μl of DMSO and the absorbance of the resulting solution determined at 540 nm. Dose response curves were constructed, and the concentration required to reduce cell growth by 50% (IC50) determined.

[2] = tested on: HCT116 p53-/-
Text: as §1, §2, §3

[3] = tested on: A549
Text: as §1, §2, §3

[4] = tested on: MCF10A non-cancer cells
Text: as §1, §2, §3

[5] = tested on: ARPE-19 non-cancer cells
Text: as §1, §2, §3

[6] = tested on: HCT116 p53+/+
Text: as §1, §2, §3

[7] = tested on: HT-29
Text: as §1, §2, §3

## O=P([O-])([O-])[O-].[Cu+2].[Cu+2].[Cu+2].c1ccc(-c2csc(NCCN(CCNc3nc(-c4ccccn4)cs3)CCNc3nc(-c4ccccn4)cs3)n2)nc1.c1ccc(-c2csc(NCCN(CCNc3nc(-c4ccccn4)cs3)CCNc3nc(-c4ccccn4)cs3)n2)nc1 [[L2Cu3(PO4)]3+]
[1]; H460, mean of replicates, read-out: Mean IC50
  IC50: 1410 nM
[1]; H460, read-out: Mean IC50 values
  IC50: 1410 nM
[1]; H460, single replicate, read-out: IC50 values for each replicate
  IC50: 592 nM and 533 nM and 1.4 µM and 2.22 µM and 504 nM and 1.98 µM (2×) and 2.1 µM
[1]; IC50 ARPE-19 / IC50 H460
  Selectivity index (ARPE19): 115.82
[1]; IC50 MCF10A / IC50 H460
  Selectivity index (MCF10A): 34.92
[1]; ratio of IC50, H460
  Relative potency (+ anion to no anion), Ratio + anion:no anion: 5.12
[1]; ratio of SI (ARPE-19), H460
  Selectivity indices relative to ARPE-19, Ratio + anion:no anion: 0.607
[1]; ratio of SI (MCF 10A), H460
  Selectivity indices relative to MCF10A, Ratio + anion:no anion: 0.200
[2]; HCT116 p53-/-, mean of replicates, read-out: Mean IC50
  IC50: 388 nM
[2]; HCT116 p53-/-, read-out: Mean IC50 values
  IC50: 388 nM
[2]; HCT116 p53-/-, single replicate, read-out: IC50 values for each replicate
  IC50: 686 nM and 542 nM and 264 nM and 205 nM and 242 nM
[2]; IC50 ARPE-19 / IC50 HCT116 p53-/-
  Selectivity index (ARPE19): 422.09
[2]; IC50 MCF10A / IC50 HCT116 p53-/-
  Selectivity index (MCF10A): 127.27
[2]; ratio of IC50, HCT116 p53-/-
  Relative potency (+ anion to no anion), Ratio + anion:no anion: 2.83
[2]; ratio of SI (ARPE-19), HCT116 p53-/-
  Selectivity indices relative to ARPE-19, Ratio + anion:no anion: 1.099
[2]; ratio of SI (MCF 10A), HCT116 p53-/-
  Selectivity indices relative to MCF10A, Ratio + anion:no anion: 0.361
[3]; A549, mean of replicates, read-out: Mean IC50
  IC50: 1220 nM
[3]; A549, read-out: Mean IC50 values
  IC50: 1220 nM
[3]; IC50 ARPE-19 / IC50 A549
  Selectivity index (ARPE19): 134.46
[3]; IC50 MCF10A / IC50 A549
  Selectivity index (MCF10A): 40.54
[3]; ratio of IC50, A549
  Relative potency (+ anion to no anion), Ratio + anion:no anion: 5.23
[3]; ratio of SI (ARPE-19), A549
  Selectivity indices relative to ARPE-19, Ratio + anion:no anion: 0.595
[3]; ratio of SI (MCF 10A), A549
  Selectivity indices relative to MCF10A, Ratio + anion:no anion: 0.196
[4]; MCF10A non-cancer, read-out: Mean IC50 values
  IC50: 49400 nM
[4]; MCF10A, mean of replicates, read-out: Mean IC50
  IC50: 49400 nM
[4]; MCF10A, single replicate, read-out: IC50 values for each replicate
  IC50: 46700 nM and 51000 nM and 59300 nM and 40600 nM
[4]; ratio of IC50, MCF10A
  Relative potency (+ anion to no anion), Ratio + anion:no anion: 1.02
[5]; ARPE-19, mean of replicates, read-out: Mean IC50
  IC50: 164000 nM
[5]; ARPE-19, single replicate, read-out: IC50 values for each replicate
  IC50: 144000 nM and 157000 nM and 173000 nM and 182000 nM
[5]; ARPE-19 non-cancer, read-out: Mean IC50 values
  IC50: 164000 nM
[5]; ratio of IC50, ARPE-19
  Relative potency (+ anion to no anion), Ratio + anion:no anion: 3.11
[6]; HCT116 p53+/+, mean of replicates, read-out: Mean IC50
  IC50: 3390 nM
[6]; HCT116 p53+/+, read-out: Mean IC50 values
  IC50: 3390 nM
[6]; HCT116 p53+/+, single replicate, read-out: IC50 values for each replicate
  IC50: 5270 nM and 3750 nM and 2150 nM and 2080 nM and 1850 nM
[6]; IC50 ARPE-19 / IC50 HCT116 p53+/+
  Selectivity index (ARPE19): 48.25
[6]; IC50 MCF10A / IC50 HCT116 p53+/+
  Selectivity index (MCF10A): 14.55
[6]; ratio of IC50, HCT116 p53+/+
  Relative potency (+ anion to no anion), Ratio + anion:no anion: 6.84
[6]; ratio of SI (ARPE-19), HCT116 p53+/+
  Selectivity indices relative to ARPE-19, Ratio + anion:no anion: 0.455
[6]; ratio of SI (MCF 10A), HCT116 p53+/+
  Selectivity indices relative to MCF10A, Ratio + anion:no anion: 0.150
[7]; HT29, mean of replicates, read-out: Mean IC50
  IC50: 326 nM
[7]; HT29, read-out: Mean IC50 values
  IC50: 326 nM
[7]; HT-29, single replicate, read-out: IC50 values for each replicate
  IC50: 224 nM and 262 nM and 594 nM and 323 nM and 229 nM
[7]; IC50 ARPE-19 / IC50 HT29
  Selectivity index (ARPE19): 502.36
[7]; IC50 MCF10A / IC50 HT29
  Selectivity index (MCF10A): 151.48
[7]; ratio of IC50, HT29
  Relative potency (+ anion to no anion), Ratio + anion:no anion: 1.52
[7]; ratio of SI (ARPE-19), HT29
  Selectivity indices relative to ARPE-19, Ratio + anion:no anion: 2.043
[7]; ratio of SI (MCF 10A), HT29
  Selectivity indices relative to MCF10A, Ratio + anion:no anion: 0.672
